These results are taken from US9150579B2, “Selective PI3K delta inhibitors” (Rhizen Pharmaceuticals SA, priority 2012, dated 2015).

Series [1] can be described thus: Metabolic stability in mouse liver microsomes. Format: in vitro ADME. The note with it: 1 μM test item, 60 minutes, NADPH. As for the experimental part:
(§1) Metabolic stability studies were conducted using mouse, rat, and human liver microsomes. The protocol for the studies with mouse, rat, and human liver microsomes (all from BD Gentest, USA) is provided below. In brief, 0.4 mg protein was preincubated with 2 mM NADPH (cofactor) in phosphate buffer (pH˜7.4) for 15 min at 37° C. and then added with 1 μM test item and incubated further for 60 minutes in triplicate. The reaction mixture was terminated with methanol containing an internal standard and centrifuged further to analyze the test item remaining in the supernatant by LC-MS/MS. The percent parent compound remaining was calculated in comparison with similar samples terminated at 0 minutes.
On the technique in general: Microsomes from liver hold many membrane-bound enzymes, among them those of drug oxidation.

The next series concerns the target PI3K γ (Homo sapiens (Human), UniProt P48736). As to the kind of experiment: Assay 1: Fluorescent (HTRF) determination of PI3K enzyme activity, gamma. The series is classed as biochemical. How it is done:
(§2) The homogenous time resolved fluorescence (HTRF) assay allows detection of 3,4,5-triphosphate (PIP3) formed as a result of phosphorylation of phosphotidylinositol 4,5-biphosphate (PIP2) by PI3K isoforms such as α, β, γ or δ.
(§3) PI3K isoform activity for α, β, γ or δ was determined using a PI3K human HTRF™ Assay Kit (Millipore, Billerica, Mass.) with modifications. All incubations were carried out at room temperature. […] After the initial incubation, 5 μl/well of 400 μM ATP was added and incubated for an additional 30 minutes. Reaction was terminated by adding 5 μl/well stop solution (Millipore, Billerica, Mass.). Five microliters of detection mix (Millipore, Billerica, Mass.) were then added to each well and was incubated for 6-18 h in the dark.
A general note: Time-resolved FRET reads energy transfer from a long-lived donor to a nearby acceptor.

A short description of series [2]: Metabolic stability in rat liver microsomes. Format: in vitro ADME. To be noted: 1 μM test item, 60 minutes, NADPH. As for the experimental part: as §1
A further series concerns the target PI3K β (Homo sapiens (Human), UniProt P42338). As to the kind of experiment: Assay 1: Fluorescent (HTRF) determination of PI3K enzyme activity, beta. Format: biochemical. As for the experimental part:
as §2, §3

The target in another series is PI3K delta (Homo sapiens (Human), UniProt O00329). In words: Assay 1: Fluorescent (HTRF) determination of PI3K enzyme activity, delta. The series is classed as biochemical. As for the experimental part: as §2
Sequence of PI3K delta (O00329 whole entry): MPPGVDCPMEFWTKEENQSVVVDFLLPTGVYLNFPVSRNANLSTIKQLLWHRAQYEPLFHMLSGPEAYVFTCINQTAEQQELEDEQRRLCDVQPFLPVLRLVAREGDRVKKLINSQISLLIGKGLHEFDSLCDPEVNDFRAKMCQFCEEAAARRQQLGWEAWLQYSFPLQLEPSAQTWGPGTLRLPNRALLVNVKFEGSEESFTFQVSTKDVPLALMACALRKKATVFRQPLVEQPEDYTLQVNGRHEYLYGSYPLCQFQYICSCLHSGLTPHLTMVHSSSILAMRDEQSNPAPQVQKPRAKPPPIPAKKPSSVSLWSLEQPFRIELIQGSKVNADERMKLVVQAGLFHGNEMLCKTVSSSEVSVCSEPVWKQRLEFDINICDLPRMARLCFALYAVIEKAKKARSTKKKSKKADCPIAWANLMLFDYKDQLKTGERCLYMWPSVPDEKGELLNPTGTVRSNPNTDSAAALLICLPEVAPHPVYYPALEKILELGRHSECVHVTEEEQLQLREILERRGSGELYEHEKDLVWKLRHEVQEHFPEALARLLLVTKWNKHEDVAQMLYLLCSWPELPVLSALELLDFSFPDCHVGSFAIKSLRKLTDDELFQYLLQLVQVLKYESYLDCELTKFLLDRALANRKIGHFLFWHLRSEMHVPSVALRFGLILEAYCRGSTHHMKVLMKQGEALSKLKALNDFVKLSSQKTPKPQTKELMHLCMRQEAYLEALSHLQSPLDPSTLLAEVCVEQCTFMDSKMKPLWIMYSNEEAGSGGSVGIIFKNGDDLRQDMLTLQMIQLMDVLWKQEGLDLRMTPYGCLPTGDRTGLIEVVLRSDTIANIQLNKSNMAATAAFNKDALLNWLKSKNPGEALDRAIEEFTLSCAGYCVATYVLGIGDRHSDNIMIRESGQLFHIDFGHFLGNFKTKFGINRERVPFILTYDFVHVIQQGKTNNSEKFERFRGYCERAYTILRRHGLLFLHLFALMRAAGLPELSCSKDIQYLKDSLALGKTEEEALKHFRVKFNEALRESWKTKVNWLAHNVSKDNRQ
Sequence of PI3K delta (P27986 whole entry partner): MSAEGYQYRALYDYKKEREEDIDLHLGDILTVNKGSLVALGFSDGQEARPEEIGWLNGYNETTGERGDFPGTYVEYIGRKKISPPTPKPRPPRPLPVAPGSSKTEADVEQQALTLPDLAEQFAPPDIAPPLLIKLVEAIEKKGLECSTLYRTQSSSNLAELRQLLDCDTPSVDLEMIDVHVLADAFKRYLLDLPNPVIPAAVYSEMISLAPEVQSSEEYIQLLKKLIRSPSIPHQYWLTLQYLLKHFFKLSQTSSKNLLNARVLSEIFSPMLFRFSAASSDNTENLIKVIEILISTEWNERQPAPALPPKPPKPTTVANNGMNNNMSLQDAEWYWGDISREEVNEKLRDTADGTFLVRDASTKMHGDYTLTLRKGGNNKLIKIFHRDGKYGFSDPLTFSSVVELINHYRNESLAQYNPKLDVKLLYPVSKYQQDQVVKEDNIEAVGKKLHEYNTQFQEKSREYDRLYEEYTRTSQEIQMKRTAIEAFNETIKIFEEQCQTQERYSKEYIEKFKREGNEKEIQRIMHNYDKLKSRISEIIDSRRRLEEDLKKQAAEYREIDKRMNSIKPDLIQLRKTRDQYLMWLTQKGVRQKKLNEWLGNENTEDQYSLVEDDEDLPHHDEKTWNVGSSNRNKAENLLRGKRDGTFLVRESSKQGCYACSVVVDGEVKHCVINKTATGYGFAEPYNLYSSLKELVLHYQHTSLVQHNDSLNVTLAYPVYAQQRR
as §3, with “dark. HRTF ratio was measured on a microplate reader (BMG Labtech., Germany) at an excitation wavelength of 337 nm and emission wavelengths of 665 and 620 nm with an integration time of 400 μsec.” for “dark.”

The next series has as its target PI3K α (Homo sapiens (Human), UniProt P42336). In words: Assay 1: Fluorescent (HTRF) determination of PI3K enzyme activity, alpha. The series is classed as biochemical. As for the experimental part: as §2, §3
A short description of series [3]: Metabolic stability in human liver microsomes. The series is classed as in vitro ADME. To be noted: 1 μM test item, 60 minutes, NADPH. As for the experimental part:
as §1

The nature of series [4]: Oral pharmacokinetics in rats. The series is classed as in vivo. As for the experimental part:
The protocol for the pharmacokinetics studies in rat is provided below.
All animals were fasted overnight (12 hours) before dosing and continued till 4.0 hours after administration of test item. Test item formulations were prepared in 1% Tween 80 and 99% media (0.5% Methyl cellulose, 4000 cPs, pH 2.2). The blood samples (150 μl from each animal) were collected from the orbital sinus, and placed into a micro centrifuge tube containing disodium EDTA as an anticoagulant. Blood samples were centrifuged immediately with a speed of 1000 g for 10 min at 4° C. and separated plasma samples were frozen at below −80° C. and stored until analysis. The concentrations of test item in all formulation were analyzed by HPLC. The plasma concentrations of test item in all samples were analyzed by LC-MS/MS. Pharmacokinetic parameters viz. Cmax, AUC0-t, Tmax, and t1/2 were estimated by using WinNonlin software.

Series [5] can be described thus: Oral pharmacokinetics in dogs. Format: in vivo.

Structures are written as SMILES. Where two headings read alike, the source gives them in different places.

Sequence of PI3K α (P42336 whole entry): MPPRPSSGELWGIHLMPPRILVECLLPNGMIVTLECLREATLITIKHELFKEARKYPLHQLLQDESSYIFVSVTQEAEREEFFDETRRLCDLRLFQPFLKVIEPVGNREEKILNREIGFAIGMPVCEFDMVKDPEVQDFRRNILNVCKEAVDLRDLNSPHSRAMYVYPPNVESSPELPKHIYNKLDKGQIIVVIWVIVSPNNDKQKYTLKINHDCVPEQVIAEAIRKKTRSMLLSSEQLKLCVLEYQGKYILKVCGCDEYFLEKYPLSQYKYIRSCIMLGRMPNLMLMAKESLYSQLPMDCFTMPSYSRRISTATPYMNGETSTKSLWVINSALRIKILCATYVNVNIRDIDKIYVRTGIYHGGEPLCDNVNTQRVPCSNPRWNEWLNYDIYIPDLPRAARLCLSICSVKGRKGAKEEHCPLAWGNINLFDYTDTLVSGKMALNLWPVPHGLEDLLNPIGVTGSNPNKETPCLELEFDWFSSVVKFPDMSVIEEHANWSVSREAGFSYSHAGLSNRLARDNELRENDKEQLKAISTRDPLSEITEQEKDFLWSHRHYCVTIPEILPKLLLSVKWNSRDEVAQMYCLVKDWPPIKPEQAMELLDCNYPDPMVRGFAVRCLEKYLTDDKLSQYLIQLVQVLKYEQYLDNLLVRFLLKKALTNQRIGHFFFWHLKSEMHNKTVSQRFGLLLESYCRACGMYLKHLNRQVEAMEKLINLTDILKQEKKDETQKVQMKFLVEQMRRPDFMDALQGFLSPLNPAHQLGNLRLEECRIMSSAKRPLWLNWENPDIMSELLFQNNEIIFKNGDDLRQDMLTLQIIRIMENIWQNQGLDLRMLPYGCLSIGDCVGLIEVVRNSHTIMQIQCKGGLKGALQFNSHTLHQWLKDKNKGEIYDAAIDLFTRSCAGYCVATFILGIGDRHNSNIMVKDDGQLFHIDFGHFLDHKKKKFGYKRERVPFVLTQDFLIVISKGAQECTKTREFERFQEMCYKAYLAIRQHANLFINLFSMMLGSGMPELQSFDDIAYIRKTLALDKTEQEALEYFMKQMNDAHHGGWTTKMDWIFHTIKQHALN
Sequence of PI3K α (P27986 whole entry partner): as the sequence (P27986 whole entry partner) above
Sequence of PI3K β (P42338 whole entry): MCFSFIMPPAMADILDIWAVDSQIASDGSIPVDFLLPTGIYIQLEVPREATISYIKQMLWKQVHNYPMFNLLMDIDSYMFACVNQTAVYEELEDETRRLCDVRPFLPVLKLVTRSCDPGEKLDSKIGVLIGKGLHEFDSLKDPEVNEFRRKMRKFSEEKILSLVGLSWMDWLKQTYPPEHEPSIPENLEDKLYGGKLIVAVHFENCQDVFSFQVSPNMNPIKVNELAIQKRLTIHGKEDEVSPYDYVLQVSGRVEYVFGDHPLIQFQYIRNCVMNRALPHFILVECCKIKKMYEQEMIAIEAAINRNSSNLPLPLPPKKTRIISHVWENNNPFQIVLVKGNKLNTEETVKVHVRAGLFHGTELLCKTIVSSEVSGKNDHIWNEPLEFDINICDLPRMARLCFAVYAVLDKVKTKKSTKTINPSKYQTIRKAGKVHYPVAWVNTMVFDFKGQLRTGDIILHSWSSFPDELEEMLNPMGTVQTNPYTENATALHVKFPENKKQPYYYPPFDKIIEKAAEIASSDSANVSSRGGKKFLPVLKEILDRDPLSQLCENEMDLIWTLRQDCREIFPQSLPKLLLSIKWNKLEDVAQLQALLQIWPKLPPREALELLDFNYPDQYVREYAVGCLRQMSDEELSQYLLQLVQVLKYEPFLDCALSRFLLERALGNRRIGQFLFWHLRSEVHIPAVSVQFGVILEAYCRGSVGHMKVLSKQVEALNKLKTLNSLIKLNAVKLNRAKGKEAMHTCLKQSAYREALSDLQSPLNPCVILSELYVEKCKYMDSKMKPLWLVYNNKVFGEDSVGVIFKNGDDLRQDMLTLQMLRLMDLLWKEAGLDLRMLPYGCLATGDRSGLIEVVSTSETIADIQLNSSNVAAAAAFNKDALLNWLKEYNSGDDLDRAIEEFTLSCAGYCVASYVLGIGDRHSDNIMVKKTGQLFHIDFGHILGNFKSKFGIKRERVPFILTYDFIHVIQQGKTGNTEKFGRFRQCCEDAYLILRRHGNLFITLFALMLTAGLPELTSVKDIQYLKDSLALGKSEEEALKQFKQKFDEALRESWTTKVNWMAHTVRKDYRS
Sequence of PI3K β (P27986 whole entry partner): as the sequence (P27986 whole entry partner) above
Sequence of PI3K γ (P48736 whole entry, canonical isoform): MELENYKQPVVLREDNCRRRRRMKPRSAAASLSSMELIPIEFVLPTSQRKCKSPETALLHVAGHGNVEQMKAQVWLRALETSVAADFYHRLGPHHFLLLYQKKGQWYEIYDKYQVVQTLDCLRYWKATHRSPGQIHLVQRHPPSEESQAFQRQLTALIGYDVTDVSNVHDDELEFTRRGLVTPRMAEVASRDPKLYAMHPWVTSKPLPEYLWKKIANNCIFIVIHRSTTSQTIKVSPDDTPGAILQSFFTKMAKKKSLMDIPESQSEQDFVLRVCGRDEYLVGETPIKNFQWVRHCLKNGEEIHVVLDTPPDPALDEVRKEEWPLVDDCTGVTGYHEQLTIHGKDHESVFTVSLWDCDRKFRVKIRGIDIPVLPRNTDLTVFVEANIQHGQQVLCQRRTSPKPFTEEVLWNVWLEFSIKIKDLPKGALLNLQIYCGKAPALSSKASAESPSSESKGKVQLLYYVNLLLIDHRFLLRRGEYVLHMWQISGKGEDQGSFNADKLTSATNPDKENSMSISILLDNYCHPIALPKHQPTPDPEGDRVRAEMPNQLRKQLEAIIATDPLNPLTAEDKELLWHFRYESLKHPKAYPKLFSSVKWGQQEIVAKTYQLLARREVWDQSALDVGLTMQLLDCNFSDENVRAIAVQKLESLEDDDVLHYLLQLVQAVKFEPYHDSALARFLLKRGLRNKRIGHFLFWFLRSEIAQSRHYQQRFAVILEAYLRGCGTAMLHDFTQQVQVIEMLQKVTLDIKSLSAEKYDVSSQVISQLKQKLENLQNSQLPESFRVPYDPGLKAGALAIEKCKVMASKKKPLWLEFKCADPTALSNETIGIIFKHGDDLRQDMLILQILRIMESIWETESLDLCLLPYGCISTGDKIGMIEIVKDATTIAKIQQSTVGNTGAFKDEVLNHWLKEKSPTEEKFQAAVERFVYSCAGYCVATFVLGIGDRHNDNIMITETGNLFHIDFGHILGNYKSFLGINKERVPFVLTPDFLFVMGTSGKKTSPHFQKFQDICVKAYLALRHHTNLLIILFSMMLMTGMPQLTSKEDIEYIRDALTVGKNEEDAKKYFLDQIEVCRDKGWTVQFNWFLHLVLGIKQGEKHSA

In the case of `CC(C)Oc1ccc(-c2nn(C(C)c3oc4ccccc4c(=O)c3-c3cccc(F)c3)c3ncnc(N)c23)cc1F` (racemic) [Compound A, 2-(1-(4-amino-3-(3-fluoro-4-isopropoxyphenyl)-1H-pyrazolo[3,4-d]pyrimidin-1-yl)ethyl)-3-(3-fluorophenyl)-4H-chromen-4-one], in series [1], the “Metabolic stability in liver microsomes, Mouse (percent parent compound remaining)” value stood at 32.6%. The results for the inhibition at 1 µM on PI3K γ, against PI3K β and on PI3K α were 55.9%, 9.95% and 2.63%, respectively. For the same molecule, the “Metabolic stability in liver microsomes, Rat (percent parent compound remaining)” value in [2] was 43.1%. 0.0373 µM corresponded to half-maximal inhibition on PI3K delta (IC50). The “Metabolic stability in liver microsomes, Human (percent parent compound remaining)” value in [3] is listed as 38.4%.
Turning to `CC(C)Oc1ccc(-c2nn(C(C)c3oc4ccc(F)cc4c(=O)c3-c3cccc(F)c3)c3ncnc(N)c23)cc1F` (racemic) [Compound B, 2-(1-(4-amino-3-(3-fluoro-4-isopropoxyphenyl)-1H-pyrazolo[3,4-d]pyrimidin-1-yl)ethyl)-6-fluoro-3-(3-fluorophenyl)-4H-chromen-4-one], the “Metabolic stability in liver microsomes, Mouse (percent parent compound remaining)” value in [1] is recorded as 54.9%. For the same molecule, in series [2], the “Metabolic stability in liver microsomes, Rat (percent parent compound remaining)” value is on record as 51.4%. Also, the “Metabolic stability in liver microsomes, Human (percent parent compound remaining)” value in [3] amounted to 46.9%.
Take `CC(C)Oc1ccc(-c2nn([C@H](C)c3oc4ccccc4c(=O)c3-c3cccc(F)c3)c3ncnc(N)c23)cc1F` [Compound A2, (R)-2-(1-(4-amino-3-(3-fluoro-4-isopropoxyphenyl)-1H-pyrazolo[3,4-d]pyrimidin-1-yl)ethyl)-3-(3-fluorophenyl)-4H-chromen-4-one]: in series [1], the “Metabolic stability in liver microsomes, Mouse (percent parent compound remaining)” value is 34.7%. The inhibition (in general, the drop in the measured response relative to a control, in per cent) at 1 µM against PI3K γ was found to be 66.3%; at PI3K β, 38.7%; on PI3K α, 0.95%. For the same molecule, in series [2], the “Metabolic stability in liver microsomes, Rat (percent parent compound remaining)” value amounted to 44.2%. Moreover, the IC50 – broadly, the concentration that inhibits the measured activity by half – on PI3K delta (μM) was above 10 µM. In addition, the “Metabolic stability in liver microsomes, Human (percent parent compound remaining)” value in [3] was determined as 11.4%.
As for `CC(C)Oc1ccc(-c2nn([C@H](C)c3oc4ccc(F)cc4c(=O)c3-c3cccc(F)c3)c3ncnc(N)c23)cc1F` [Compound B2, (R)-2-(1-(4-amino-3-(3-fluoro-4-isopropoxyphenyl)-1H-pyrazolo[3,4-d]pyrimidin-1-yl)ethyl)-6-fluoro-3-(3-fluorophenyl)-4H-chromen-4-one], the “Metabolic stability in liver microsomes, Mouse (percent parent compound remaining)” value in [1] amounted to 54.1%. In series [2], the “Metabolic stability in liver microsomes, Rat (percent parent compound remaining)” value came out at 48.6%. Besides, in series [3], the “Metabolic stability in liver microsomes, Human (percent parent compound remaining)” value amounted to 27.5%.
Take `CC(C)Oc1ccc(-c2nn([C@@H](C)c3oc4ccc(F)cc4c(=O)c3-c3cccc(F)c3)c3ncnc(N)c23)cc1F.Cc1ccc(S(=O)(=O)O)cc1` [PTSA salt of compound B1, (S)-2-(1-(4-amino-3-(3-fluoro-4-isopropoxyphenyl)-1H-pyrazolo[3,4-d]pyrimidin-1-yl)ethyl)-6-fluoro-3-(3-fluorophenyl)-4H-chromen-4-one 4-methylbenzenesulfonate]: in series [4], the “Cmax relative to free base of compound B1” value is “about twice” and the “area under the curve (AUC) relative to free base of compound B1” value was “nearly three times”. In [5], the “Cmax relative to free base of compound B1” value is recorded as “more than twice” and the “area under the curve (AUC) relative to free base of compound B1” value was “about four times”.
